{"source": "paper PMC12203311", "about": "“Design, synthesis, in silico and in vitro evaluation of pyrrole–indole hybrids as dual tubulin and aromatase inhibitors with potent anticancer activities” (RSC Advances, 2025)", "key": {"[1]": {"system": "HT29", "test": "NCI60 five-dose screen", "format": "cell-based", "conditions": "Homo sapiens, HT-29, HT29, colon cancer"}, "[2]": {"system": "OVCAR-8", "test": "NCI60 five-dose screen", "format": "cell-based", "conditions": "Homo sapiens, OVCAR-8, ovarian cancer"}, "[3]": {"system": "NCI-H522", "test": "NCI60 five-dose screen", "format": "cell-based", "conditions": "Homo sapiens, NCI-H522, NSC lung cancer"}, "[4]": {"system": "BT-549", "test": "NCI60 five-dose screen", "format": "cell-based", "conditions": "Homo sapiens, BT-549, breast cancer"}, "[5]": {"system": "CAKI-1", "test": "NCI60 five-dose screen", "format": "cell-based", "conditions": "Homo sapiens, CAKI-1, renal cancer"}, "[6]": {"system": "UACC-257", "test": "NCI60 five-dose screen", "format": "cell-based", "conditions": "Homo sapiens, UACC-257, melanoma"}, "[7]": {"system": "HOP-92", "test": "NCI60 five-dose screen", "format": "cell-based", "conditions": "Homo sapiens, HOP-92, NSC lung cancer"}, "[8]": {"system": "NCI/ADR-RES", "test": "NCI60 five-dose screen", "format": "cell-based, human", "conditions": "Homo sapiens, ovarian cancer"}, "[9]": {"target": "T1, Human CYP19 (aromatase) (Homo sapiens, UniProt P11511)", "T1 construct": "purchased GENTEST, Woburn, MA 456260; host or cells: baculovirus/insect cells", "T1 sequence (P11511 1-503)": "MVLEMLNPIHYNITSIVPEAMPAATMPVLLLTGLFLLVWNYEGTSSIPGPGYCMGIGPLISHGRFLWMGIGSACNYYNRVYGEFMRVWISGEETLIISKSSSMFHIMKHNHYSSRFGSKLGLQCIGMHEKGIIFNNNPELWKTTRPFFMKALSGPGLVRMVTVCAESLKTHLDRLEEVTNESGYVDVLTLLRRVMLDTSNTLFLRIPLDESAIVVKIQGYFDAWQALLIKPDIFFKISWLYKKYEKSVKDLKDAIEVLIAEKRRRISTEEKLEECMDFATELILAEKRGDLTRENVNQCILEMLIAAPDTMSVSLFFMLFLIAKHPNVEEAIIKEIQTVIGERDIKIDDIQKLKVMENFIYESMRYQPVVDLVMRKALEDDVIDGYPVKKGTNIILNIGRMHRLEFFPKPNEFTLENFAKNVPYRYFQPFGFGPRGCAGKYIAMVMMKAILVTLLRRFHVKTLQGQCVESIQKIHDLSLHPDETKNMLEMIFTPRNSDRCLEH", "test": "Aromatase inhibition assay (DBF fluorometric substrate)", "format": "biochemical", "conditions": "active defined as IC50 < 12.5 µM", "summary_of_the_method": "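Supersomes expressing human CYP19 plus oxidoreductase (baculovirus/insect cell) with fluorometric substrate DBF; cofactor mixture pre-incubated 10 min at 37 °C, reaction run 30 min at 37 °C, stopped with NaOH. Fluorescence read at ex 490/em 530 nm.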"}, "[10]": {"system": "L929 normal mouse fibroblast cell line", "test": "Cytotoxicity MTT assay, L929", "format": "cell-based", "conditions": "IC50 (L929)/IC50 (T47D)", "procedure": "(§1) T47D (ATCC HTB-133) was purchased from Biomedia (Thailand) Co., LTD. L929 (ATCC CCL-1) was received as a gift from Prof. Tanapat Palaga, Department of Microbiology, Faculty of Science, Chulalongkorn University, Bangkok, Thailand. The cells were cultured in Dulbecco's Modified Eagle's Medium (DMEM; Gibco) supplemented with 10% fetal bovine serum (FBS; HyClone), 100 U mL^−1 penicillin and 100 µg mL^−1 streptomycin (Gibco) at 37 °C with 5% CO2.\n(§2) The antiproliferative activity was determined by MTT assay. Briefly, the cells were plated into a 96-well microplate at the density of 10 000 cells per well. The cells were allowed to grow overnight before treated with the solutions of compounds in culture medium at the designated concentrations for 48 hours. The medium was then replaced with MTT solution (0.5 mg mL^−1 MTT in culture medium) and incubated for 3 hours. A 100 µL of DMSO was used to dissolve the produced formazan. Absorbance at 570 nm was then measured using a microplate reader (Varioskan™ LUX multimode microplate reader, Thermo Scientific™). Percent viability was calculated relative to the vehicle control (DMSO)."}, "[11]": {"test": "Cytotoxicity MTT assay, L929", "format": "cell-based, mouse", "conditions": "mouse, L929 fibroblast cells; MTT, 48 hours", "procedure": "as §1, §2"}, "[12]": {"system": "NCI-H322M", "test": "NCI60 five-dose screen", "format": "cell-based", "conditions": "Homo sapiens, NSC lung cancer"}, "[13]": {"system": "NCI-H460", "test": "NCI60 five-dose screen", "format": "cell-based", "conditions": "Homo sapiens, NCI-H460, NSC lung cancer"}, "[14]": {"system": "MOLT-4", "test": "NCI60 five-dose screen", "format": "cell-based", "conditions": "Homo sapiens, MOLT-4, leukemia"}, "[15]": {"system": "NCI-H226", "test": "NCI60 five-dose screen", "format": "cell-based", "conditions": "Homo sapiens, NCI-H226, NSC lung cancer"}, "[16]": {"system": "EKVX", "test": "NCI60 five-dose screen", "format": "cell-based", "conditions": "Homo sapiens, NSC lung cancer"}, "[17]": {"system": "M14", "test": "NCI60 five-dose screen", "format": "cell-based", "conditions": "Homo sapiens, M14, melanoma"}, "[18]": {"system": "HOP-62", "test": "NCI60 five-dose screen", "format": "cell-based", "conditions": "Homo sapiens, HOP-62, NSC lung cancer"}, "[19]": {"system": "LOX IMVI", "test": "NCI60 five-dose screen", "format": "cell-based", "conditions": "Homo sapiens, melanoma"}, "[20]": {"system": "HCT-15", "test": "NCI60 five-dose screen", "format": "cell-based", "conditions": "Homo sapiens, HCT-15, colon cancer"}, "[21]": {"system": "SNB-19", "test": "NCI60 five-dose screen", "format": "cell-based", "conditions": "Homo sapiens, SNB-19, CNS cancer"}, "[22]": {"system": "786-0", "test": "NCI60 five-dose screen", "format": "cell-based", "conditions": "Homo sapiens, 786-0, renal cancer"}, "[23]": {"conditions": "read-out: LC50 (the source's name)"}}}
{"smiles": "O=C(N/N=C/c1ccc[nH]1)c1[nH]c2ccc(Br)cc2c1-c1ccccc1", "note": "[Derivative 3a, (E)-N′-((1H-Pyrrol-2-yl)methylene)-5-bromo-3-phenyl-1H-indole-2-carbohydrazide]", "values": [{"measurement": "GI50", "setting": "[1]", "value": 329, "unit": "nM"}, {"measurement": "CC50", "setting": "[1]; [23]", "value": 9.31, "unit": "µM"}, {"measurement": "GI50", "setting": "[2]", "value": 323, "unit": "nM"}, {"measurement": "CC50", "setting": "[2]; [23]", "value": 6.55, "unit": "µM"}, {"measurement": "GI50", "setting": "[3]", "value": 45, "unit": "nM"}, {"measurement": "CC50", "setting": "[3]; [23]", "value": 22, "unit": "µM"}, {"measurement": "GI50", "setting": "[4]", "value": 375, "unit": "nM"}, {"measurement": "CC50", "setting": "[4]; [23]", "value": 6.39, "unit": "µM"}, {"measurement": "GI50", "setting": "[5]", "value": 257, "unit": "nM"}, {"measurement": "CC50", "setting": "[5]; [23]", "value": 30.9, "unit": "µM"}, {"measurement": "GI50", "setting": "[6]", "value": 647, "unit": "nM"}, {"measurement": "CC50", "setting": "[6]; [23]", "value": 47.1, "unit": "µM"}, {"measurement": "GI50", "setting": "[7]", "value": 992, "unit": "nM"}, {"measurement": "CC50", "setting": "[7]; [23]", "value": 26.4, "unit": "µM"}, {"measurement": "GI50", "setting": "[8]", "value": 440, "unit": "nM"}, {"measurement": "CC50", "setting": "[8]; [23]", "value": 59.2, "unit": "µM"}, {"measurement": "IC50", "setting": "[9]", "value": "3.4 ± 0.6", "unit": "µM"}, {"measurement": "Selectivity index (SI)", "setting": "[10]", "value": 16.4}, {"measurement": "IC50 at 48 h", "setting": "[11]", "value": "26.3 ± 14.5", "unit": "µM"}, {"measurement": "GI50", "setting": "[12]", "value": 661, "unit": "nM"}, {"measurement": "CC50", "setting": "[12]; [23]", "value": 36.5, "unit": "µM"}, {"measurement": "GI50", "setting": "[13]", "value": 318, "unit": "nM"}, {"measurement": "CC50", "setting": "[13]; [23]", "value": 12.5, "unit": "µM"}, {"measurement": "GI50", "setting": "[14]", "value": 384, "unit": "nM"}, {"measurement": "CC50", "setting": "[14]; [23]", "value": "> 100", "unit": "µM"}, {"measurement": "GI50", "setting": "[15]", "value": 323, "unit": "nM"}, {"measurement": "CC50", "setting": "[15]; [23]", "value": 23.3, "unit": "µM"}, {"measurement": "GI50", "setting": "[16]", "value": 1230, "unit": "nM"}, {"measurement": "CC50", "setting": "[16]; [23]", "value": 33.4, "unit": "µM"}, {"measurement": "GI50", "setting": "[17]", "value": 304, "unit": "nM"}, {"measurement": "CC50", "setting": "[17]; [23]", "value": 41.4, "unit": "µM"}, {"measurement": "GI50", "setting": "[18]", "value": 684, "unit": "nM"}, {"measurement": "CC50", "setting": "[18]; [23]", "value": 32.6, "unit": "µM"}, {"measurement": "GI50", "setting": "[19]", "value": 244, "unit": "nM"}, {"measurement": "CC50", "setting": "[19]; [23]", "value": 19, "unit": "µM"}, {"measurement": "GI50", "setting": "[20]", "value": 269, "unit": "nM"}, {"measurement": "CC50", "setting": "[20]; [23]", "value": 32.3, "unit": "µM"}, {"measurement": "GI50", "setting": "[21]", "value": 416, "unit": "nM"}, {"measurement": "CC50", "setting": "[21]; [23]", "value": 35, "unit": "µM"}, {"measurement": "GI50", "setting": "[22]", "value": 791, "unit": "nM"}, {"measurement": "CC50", "setting": "[22]; [23]", "value": 23.9, "unit": "µM"}]}
